Reference: ChEMBL document CHEMBL3885861, “Open TG-GATES”

Species: Rattus norvegicus
Assay: Open TG-GATES - Regimen: Single
Format: toxicity, organism-based, Sprague-Dawley
Parameters: regimen Single, gender Male, age 6 weeks
Details: in vivo, iv, 0 mg/kg, route intravenous injection, dose level Control; for APTT / Bas / Eos / Fbg / Hb / Ht / Lym / MCH / MCHC / MCV / Mono / PT / Plat / RBC / Ret / WBC: tissue Blood; for KIDNEY_L / KIDNEY_R / KIDNEY_TOTAL: tissue Kidney; for LIVER: tissue Liver; for ALP / ALT / AST / BUN / CRE / Ca / Cl / DBIL / GLC / IP / K / LDH / Na / PL / RALB / TBIL / TC / TG / TP / gamma-GTP: tissue Plasma

CC(=O)OCC1=C(C(=O)O)N2C(=O)[C@@H](NC(=O)Cc3cccs3)[C@H]2SC1 [CEPHALOTHIN]
TERMINAL_BW (3 h): 214.5 g
APTT (3 h): 22.3 s
Bas (3 h): 0%
Eos (3 h): 0.8%
Fbg (3 h): 274.6 mg/dL
Hb (3 h): 13.2 g/dL
Ht (3 h): 38.5%
Lym (3 h): 80%
MCH (3 h): 20.9 pg
MCHC (3 h): 34.2%
MCV (3 h): 61.2 fL
Mono (3 h): 2.8%
PT (3 h): 16.5 s
Plat (3 h): 124.3 x10_4/uL
RBC (3 h): 629.6 x10_4/ul
Ret (3 h): 6.1%
WBC (3 h): 84.8 x10_2/uL
KIDNEY_L (3 h): 1 g
KIDNEY_R (3 h): 1 g
KIDNEY_TOTAL (3 h): 2 g
LIVER (3 h): 10.2 g
ALP (3 h): 1573.2 IU/L
ALT (3 h): 46.4 IU/L
AST (3 h): 85.6 IU/L
BUN (3 h): 12.4 mg/dL
CRE (3 h): 0.2 mg/dL
Ca (3 h): 10.5 mg/dL
Cl (3 h): 107.4 meq/L
DBIL (3 h): 0 mg/dL
GLC (3 h): 176.2 mg/dL
IP (3 h): 7.6 mg/dL
K (3 h): 4.3 meq/L
LDH (3 h): 171.6 IU/L
Na (3 h): 142 meq/L
PL (3 h): 117.2 mg/dL
RALB (3 h): 2.8 g/dL
TBIL (3 h): 0.016 mg/dL
TC (3 h): 60.8 mg/dL
TG (3 h): 69.2 mg/dL
TP (3 h): 5.1 g/dL
gamma-GTP (3 h): 1 IU/L
TERMINAL_BW (6 h): 214.9 g
APTT (6 h): 22.2 s
Bas (6 h): 0%
Eos (6 h): 0.8%
Fbg (6 h): 279.4 mg/dL
Hb (6 h): 13.1 g/dL
Ht (6 h): 38.1%
Lym (6 h): 74.2%
MCH (6 h): 21.1 pg
MCHC (6 h): 34.3%
MCV (6 h): 61.7 fL
Mono (6 h): 2.4%
PT (6 h): 16.2 s
Plat (6 h): 129.1 x10_4/uL
RBC (6 h): 618.8 x10_4/ul
Ret (6 h): 6.4%
WBC (6 h): 81.7 x10_2/uL
KIDNEY_L (6 h): 1 g
KIDNEY_R (6 h): 1 g
KIDNEY_TOTAL (6 h): 2 g
LIVER (6 h): 9.1 g
ALP (6 h): 1313 IU/L
ALT (6 h): 41.6 IU/L
AST (6 h): 80 IU/L
BUN (6 h): 9.2 mg/dL
CRE (6 h): 0.2 mg/dL
Ca (6 h): 10.2 mg/dL
Cl (6 h): 105.4 meq/L
DBIL (6 h): 0.002 mg/dL
GLC (6 h): 184.8 mg/dL
IP (6 h): 9.3 mg/dL
K (6 h): 4.3 meq/L
LDH (6 h): 176.2 IU/L
Na (6 h): 141.4 meq/L
PL (6 h): 122 mg/dL
RALB (6 h): 2.8 g/dL
TBIL (6 h): 0.02 mg/dL
TC (6 h): 67.8 mg/dL
TG (6 h): 41 mg/dL
TP (6 h): 5.1 g/dL
gamma-GTP (6 h): 1.4 IU/L
